Consider 3 molecules from article PMC3433708, “Structural Basis for Specific Recognition of Substrates by Sapovirus Protease” (Frontiers in Microbiology, 2012).

For orientation: IC50 means the concentration at which inhibition is half-maximal.

T1 sequence (Q6XDK8 1056-1201): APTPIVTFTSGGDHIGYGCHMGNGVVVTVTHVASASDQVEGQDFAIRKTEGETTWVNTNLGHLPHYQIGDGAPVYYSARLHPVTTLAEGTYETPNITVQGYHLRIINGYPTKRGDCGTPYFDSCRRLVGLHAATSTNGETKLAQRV

The assay addresses T1, SaV protease (3C-like protease domain of NS6-7, Pro^wt) (Sapovirus Mc10, UniProt Q6XDK8).
T1 construct: gene ORF1; partial ORF1 polyprotein NS6-7-VP1 with functional protease, made by coupled in vitro transcription/translation in rabbit reticulocyte lysate, not purified; protease domain 146 residues; from ORF1 polyprotein of 2278 residues
The assay can be described thus: in vitro trans cleavage assay, […]-labelled ORF1 polyprotein (Pro^mut), SDS-PAGE, NS4-NS5 band. It is filed as biochemical.
In turn, `CN(C)c1ccc(/C=C2\CCCC3C2=NN(C(=O)CCC(=O)O)C3c2ccc(N(C)C)cc2)cc1` (stereo not drawn) [compound 50, Compound No.50] yielded an IC50 of 26.5 µM.
`Cc1cccc(N2CCN(c3ccc(C(=O)O)cc3NS(=O)(=O)c3cc(C)cc(C)c3)CC2C)c1` (stereo not drawn) [compound 100, Compound No.100] displayed an IC50 of 18.4 µM.
The value for `Cc1ccc(C)n1C(CC(=O)O)c1ccc(OCc2ccccc2)cc1` (stereo not drawn) [compound 116, Compound No.116] was 18.4 µM.
